Assay results: ChEMBL document CHEMBL4819115, “Discovery of potent and selective reversible Bruton's tyrosine kinase inhibitors” (Bioorg Med Chem, 2021)
Values after ≈ are worked out from the molar mass of the structure shown. Values belong to the compound of their own block, whether it stands above or below them.

How the values were obtained:
physchem = details: FaSSIF
[1] = Kinetic solubility of the compound; format: physicochemical; details: read-out: Kinetic_solubility
[2] = Cmax in rat at 10 mg/kg, po; format: ADME, organism-based; set-up: route oral, dose 10 mg/kg; details: in vivo
[3] = AUC(0 to 6 hrs) in rat at 10 mg/kg, po; format: ADME, organism-based; set-up: time < 6 hr, route oral, dose 10 mg/kg; details: in vivo
[4] = Half life in rat at 10 mg/kg, po; format: ADME, organism-based; details: in vivo
[5] = Intrinsic clearance in rat microsomes; format: ADME, Microsome
[6] = Volume of distribution at steady state in rat at 0.2 mg/kg, iv; format: ADME, organism-based; details: in vivo, read-out: Vdss
[7] = Stability of the compound in human plasma assessed as parent compound remaining after 4 hrs; format: ADME, cell-free; details: read-out: Stabilty
[8] = Clearance in rat at 0.2 mg/kg, iv; format: ADME, organism-based; details: in vivo
[9] = AUC(0 to 4 hrs) in rat at 0.2 mg/kg, iv; format: ADME, organism-based; set-up: time < 4 hr, route intravenous, dose 0.2 mg/kg; details: in vivo
[10] = Oral bioavailability in rat at 10 mg/kg; format: ADME, organism-based; details: in vivo
[11] = Intrinsic clearance in mouse microsomes; format: ADME, Microsome
[12] = Stability of the compound in mouse plasma assessed as parent compound remaining after 4 hrs; format: ADME, cell-free; details: read-out: Stabilty
[13] = Intrinsic clearance in human microsomes; format: ADME, Microsome

- solubility (physchem): 33 µg/mL (≈ 56.8 µM)
SMILES: Cc1nn(C2CCOCC2)cc1-c1nc2c(-c3ccc4c(c3)CCC[C@@H]4NC(=O)c3nc(C(C)(C)C)no3)ccnc2[nH]1

- solubility kinetic [1]: 1.7 µM (≈ 0.807 µg/mL)
- solubility (physchem): 2 µg/mL (≈ 4.21 µM)
SMILES: Cn1cc(-c2nc3c(-c4ccc(CNC(=O)c5nc(C(C)(C)C)no5)c(F)c4)ccnc3[nH]2)cn1

- solubility (physchem): 28 µg/mL (≈ 52 µM)
SMILES: Cc1c(-c2nc3c(-c4ccc5c(c4)CCC[C@@H]5NC(=O)c4nc(C(C)(C)C)no4)ccnc3[nH]2)cnn1C(C)C

- solubility (physchem): 190 µg/mL (≈ 383 µM)
SMILES: Cn1cc(-c2nc3c(-c4ccc5c(c4)CCC[C@@H]5NC(=O)c4nc(C(C)(C)C)no4)ccnc3[nH]2)cn1

Further lines, the compound ahead of its results:

SMILES: Cn1cc(-c2nc3c(-c4ccc(C5(NC(=O)c6nc(C(C)(C)C)no6)CC5)cc4)ccnc3[nH]2)cn1
- solubility (physchem): 56 µg/mL (≈ 116 µM)

SMILES: CC(C)n1cc(-c2nc3c(-c4ccc5c(c4)CCC[C@@H]5NC(=O)c4nc(C(C)(C)C)no4)ccnc3[nH]2)cn1
- solubility (physchem): 25 µg/mL (≈ 47.7 µM)

SMILES: CN1CCN(c2ccc(Nc3cc(-c4cccc(-n5ccc6cc(C7CC7)cc(F)c6c5=O)c4CO)cn(C)c3=O)nc2)CC1
- solubility (physchem): 31 µg/mL (≈ 51.1 µM)

SMILES: Cc1nn(C(C)C)c(C)c1-c1nc2nccc(-c3ccc4c(c3)CCCC[C@H]4NC(=O)c3nc(C(C)(C)C)no3)c2[nH]1
- Cmax [2]: 849 ng/mL
- AUC [3]: 3030 ng·h/mL
- half-life [4]: 1.93 h
- microsomal CLint [5]: 67 µL/min/mg
- Vd [6]: 2.62 L/kg
- remaining at 4 h [7]: > 85%
- CL [8]: 40.3 mL/min/kg
- AUC [9]: 79 ng·h/mL
- bioavailability [10]: 77%
- microsomal CLint [11]: 75 µL/min/mg
- remaining at 4 h [12]: > 85%
- microsomal CLint [13]: 32 µL/min/mg

SMILES: Cc1c(-c2nc3c(-c4ccc5c(c4)CCC[C@H]5NC(=O)c4nc(C(C)(C)C)no4)ccnc3[nH]2)cnn1C1CCOCC1
- solubility (physchem): 7 µg/mL (≈ 12.1 µM)

SMILES: Cc1nn(C(C)C)c(C)c1-c1nc2c(-c3ccc4c(c3)CCC[C@H]4NC(=O)c3nc(C(C)(C)C)no3)ccnc2[nH]1
- solubility (physchem): 56 µg/mL (≈ 101 µM)
